Measurements from US20090005373A1, “SUBSTITUTED SULFONAMIDO-MACROCYCLES AS TIE2 INHIBITORS AND SALTS THEREOF, PHARMACEUTICAL COMPOSITIONS COMPRISING SAME, METHODS OF PREPARING SAME AND USES OF SAME” (priority 2006, published 2009).

Assays:
Format in all cases: biochemical
[1] = molecular target: T1, Tie-2 (Homo sapiens, UniProt Q02763); assay: Tie-2-Kinase HTRF-Assay without Kinase Preactivation (assay 2); details: 10 μM ATP, no kinase preactivation
T1 construct: A recombinant fusion protein of GST and the intracellular domains of Tie-2, expressed in insect cells (Hi-5); GST; made in house; host or cells: Hi-5 insect cells
Text: Tie2-inhibitory activity of compounds of the present invention was quantified employing two Tie2 HTRF assay as described in the following paragraphs.
A recombinant fusion protein of GST and the intracellular domains of Tie-2, expressed in insect cells (Hi-5) and purified by Glutathion-Sepharose affinity chromatography was used as kinase. Alternatively, commercially available GST-Tie2-fusion protein (Upstate Biotechnology, Dundee, Scotland) can be used As substrate for the kinase reaction the biotinylated peptide biotin-Ahx-EPKDDAYPLYSDFG (C-terminus in amid form) was used which can be purchased e.g. from the company Biosynthan GmbH (Berlin-Buch, Germany). Detection of phosphorylated product is achieved specifically by a trimeric detection complex consisting of the phosphorylated substrate, streptavidin-XLent (SA-XLent) which binds to biotin, and Europium Cryptate-labeled anti-phosphotyrosine antibody PT66 which binds to phosphorylated tyrosine.
Tie-2 (3.5 ng/measurement point) was incubated for 60 min at 22° C. in the presence of 10 μM adenosine-tri-phosphate (ATP) and 1 μM substrate peptide (biotin-Ahx-EPKDDAYPLYSDFG-NH2) with different concentrations of test compounds (0 μM and concentrations in the range 0.001-20 μM) in 5 μl assay buffer [50 mM Hepes/NaOH pH 7, 10 mM MgCl2, 0.5 mM MnCl2, 1.0 mM dithiothreitol, 0.01% NP40, protease inhibitor mixture (“Complete w/o EDTA” from Roche, 1 tablet per 2.5 ml), 1% (v/v) dimethylsulfoxide]. The reaction was stopped by the addition of 5 μl of an aqueous buffer (25 mM Hepes/NaOH pH 7.5, 0.28% (w/v) bovine serum albumin) containing EDTA (90 mM) and the HTRF (Homogeneous Time Resolved Fluorescence) detection reagents streptavidine-XLent (0.2 μM, from Cis Biointernational, Marcoule, France) and PT66-Eu-Chelate (0.3 ng/μl; a europium-chelate labelled anti-phospho-tyrosine antibody from Perkin Elmer).
(§1) The resulting mixture was incubated 1 h at 22° C. to allow the binding of the biotinylated phosphorylated peptide to the streptavidine-XLent and the PT66-Eu-Chelate. Subsequently the amount of phosphorylated substrate peptide was evaluated by measurement of the resonance energy transfer from the PT66-Eu-Chelate to the streptavidine-XLent. Therefore, the fluorescence emissions at 620 nm and 665 nm after excitation at 350 nm was measured in a HTRF reader, e.g. a Rubystar (BMG Labtechnologies, Offenburg, Germany) or a Viewlux (Perkin-Elmer). The ratio of the emissions at 665 nm and at […] was taken as the measure for the amount of phosphorylated substrate peptide. The data were normalised (enzyme reaction without inhibitor=0% inhibition, all other assay components but no enzyme=100% inhibition) and IC50 values were calculated by a 4 parameter fit using an inhouse software.

[2] = molecular target: T2, human KDR (Homo sapiens, UniProt P35968); assay: KDR Kinase Assay, HTRF (assay 5); details: 10 μM ATP
T2 construct: GST-tagged recombinant kinase domain of the human KDR; GST; host or cells: SF-9 insect cells
Description: Assay 5: KDR Kinase Assay
KDR inhibitory activity of compounds of the present invention was quantified employing the KDR HTRF assay as described in the following paragraphs.
GST-tagged recombinant kinase domain of the human KDR expressed in SF-9 cells was used as kinase. As substrate for the kinase reaction the biotinylated peptide biotin-Ahx-DFGLARDMYDKEYYSVG (C-terminus in acid form) was used which can be purchased e.g. form the company Biosynthan GmbH (Berlin-Buch, Germany). KDR was incubated for 45 min at 22° C. in the presence of different concentrations of test compounds in 5 μl assay buffer [50 mM Hepes/NaOH pH 7.0, 25 mM MgCl2, 5 mM MnCl2, 1.0 mM dithiothreitol, 0.1 mM sodium ortho-vanadate, 10 μM adenosine-tri-phosphate (ATP), 0.5 μM substrate, 0.001% (v/v) Nonidet-P40 (Sigma), 1% (v/v) dimethylsulfoxide]. The concentration of KDR was adjusted depending of the activity of the enzyme lot and was chosen appropriate to have the assay in the linear range. The reaction was stopped by the addition of 5 μl of a solution of HTRF detection reagents (0.1 μM streptavidine-XLent and 2 nM PT66-Eu-Chelate, an europium-chelate labelled anti-phospho-tyrosine antibody from Perkin Elmer) in an aqueous EDTA-solution (125 mM EDTA, 0.2% (w/v) bovine serum albumin in 50 mM HEPES/NaOH pH 7.0).
as §1, with “substrate” for “substrate peptide”, “substrate.” for “substrate peptide.”

[3] = molecular target: T3, CDK2/CycE (Homo sapiens, UniProt P24941); assay: CDK2 HTRF Assay (assay 4); details: pIC50 = −log IC50 in molar concentration; 10 μM ATP
T3 construct: GST; purchased ProQinase GmbH (Freiburg, Germany); host or cells: Sf9 insect cells
Text: CDK2/CycE—inhibitory activity of compounds of the present invention was quantified employing the CDK2/CycE HTRF assay as described in the following paragraphs.
Recombinant fusion proteins of GST and human CDK2 and of GST and human CycE, expressed in insect cells (Sf9) and purified by Glutathion-Sepharose affinity chromatography, were purchase from ProQinase GmbH (Freiburg, Germany). As substrate for the kinase reaction biotinylated peptide biotin-Ttds-YISPLKSPYKISEG (C-terminus in amid form) was used which can be purchased e.g. form the company JERINI peptide technologies (Berlin, Germany).
CDK2/CycE was incubated for 60 min at 22° C. in the presence of different concentrations of test compounds in 5 μl assay buffer [50 mM Tris/HCl pH […], 1.0 mM dithiothreitol, 0.1 mM sodium ortho-vanadate, 10 μM adenosine-tri-phosphate (ATP), 0.75 μM substrate, 0.01% (v/v) Nonidet-P40 (Sigma), 1% (v/v) dimethylsulfoxide]. The concentration of CDK2/CycE was adjusted depending of the activity of the enzyme lot and was chosen appropriate to have the assay in the linear range, typical concentrations were in the range of 1 ng/ml. The reaction was stopped by the addition of 5 μl of a solution of HTRF detection reagents (0.2 μM streptavidine-XLent and 3.4 nM Phospho-(Ser) CDKs Substrate Antibody [product #2324B, Cell Signalling Technology, Danvers, Mass., USA} and 4 nM Prot-A-EuK [Protein A labeled with Europium Cryptate from Cis biointernational, France, product no. 61PRAKLB]) in an aqueous EDTA-solution (100 mM EDTA, 800 mM KF, 0.2% (w/v) bovine serum albumin in 100 mM HEPES/NaOH pH 7.0).

[4] = molecular target: T4, Plk1 (Homo sapiens, UniProt P53350); assay: Plk1 Inhibition Assay, SPA (assay 6); details: ATP 0.5 μM
T4 construct: N-terminally 6His-tagged full length Plk1; 6His (N); made in house
Text: Assay 6: Plk1 Inhibition Assay
Plk1 phosphorylates serine/threonine residues of the biotinylated substrate bovine α-casein in the presence of [γ-^33P]ATP. Detection of the radiolabeled phosphorylated product is achieved by binding to streptavidine-coated SPA beads. The biotin moieties of biotinylated casein bind with high affinity to the streptavidine. The radiolabeled biotinylated casein produced by the Plk1 kinase reaction is able to generate a chemoluminescent signal when strepatavidine-mediated binding occurs to the scintillant-containing surface of the beads due to the close proximity of the radiolabel and the scintillant. […] The signals obtained are therefore indicative of the Plk1 kinase activity. Measurement is performed in a Perkin-Elmer TopCount instrument.
Enzyme: Purified human recombinant PLK1 [N-terminally 6His-tagged full length Plk1], prepared in house, conc.: 0.4 μg/μl Substrate: biotinylated bovine α-casein. Unbiotinylated casein obtained from Sigma was biotinylated by standard procedures using N-hydroxysuccinimide (NHS) ester of biotin. SPA-beads: PVT streptavidin SPA Beads, Amersham (# RPNQ0007) Reference compound: Wortmannin Assay plates: 384-well plates, small volume, white, Greiner (#784075) Buffer Materials Hepes: Sigma (# H-4034), MnCl2: Sigma (# M-1787), MgCl2: Sigma [# M-1028], NaCl: Merck [#1.06404.100], DTT: Biomol (#04010), NP40: Fluka (#74385), Complete EDTA-free: Roche [#1873580], ATP: Amersham (#27-2056), 33P-gamma-ATP: Perkin Elmer (Easytides # NEG/602H), EDTA: Sigma (# E-7889), PBS: Gibco (#14190-094), ATP for stopping solution: Sigma #(A-7699), DMSO: Merck [#8.02912.1000] Sealing tape: Greiner (#676080) Reader: TopCount instrument (PerkinElmer)
Assay buffer: 2.5 mM MnCl2, 5 mM MgCl2, 120 mM NaCl, 1 mM DTT, 50 mM Hepes pH 7.0, 0.01% NP40, 1× Complete (protease inhibitor cocktail) Enzyme working solution: 2.86 ng/μl PLK1 in assay buffer Substrate working solution: 1 μM ATP, 1.4 μM biotinylated a-Casein, 2.0 nCi/μl in assay buffer Stop/Detection solution: 50 μM ATP, 20 mM EDTA, 5 μg/μl beads in PBS 3. Assay protocol for small volume screen (all steps at 20° C., pipetted with CyBi-Well pipettor) • 1. 0.75 μl Compound in 30% or 100% DMSO • 2. addition of 3.5 μl Enzyme working solution • 3. addition of 3.5 μl Substrate working solution incubation 180 min • 4. addition of 10 μl Stop/Detection solution • 5. sealing of the plates, incubation 30 min, 10 min centrifugation at 1500 rpm • 6. Measurement in TopCount reader (60 sec/well)
Final concentrations, calculated for 7 μl reaction volume: PLK1 10 ng/well; a-Casein 0.7 μM; ATP 0.5 μM; gamma-33P-ATP 7 nCi/well, 2.5 mM MnCl2, 5 mM MgCl2, 120 mM NaCl, 1 mM DTT, 50 mM Hepes pH 7.0, 0.01% NP40, 1× Complete, 3% or 10% DMSO
The data were normalised (enzyme reaction without inhibitor=0% inhibition, enzyme reaction in the presence of 3.0 E-06 M wortmannin=100% inhibition) and IC50 values were calculated by a 4-parameter fit using an in house software.

T1 sequence (Q02763 770-1124 limits assumed): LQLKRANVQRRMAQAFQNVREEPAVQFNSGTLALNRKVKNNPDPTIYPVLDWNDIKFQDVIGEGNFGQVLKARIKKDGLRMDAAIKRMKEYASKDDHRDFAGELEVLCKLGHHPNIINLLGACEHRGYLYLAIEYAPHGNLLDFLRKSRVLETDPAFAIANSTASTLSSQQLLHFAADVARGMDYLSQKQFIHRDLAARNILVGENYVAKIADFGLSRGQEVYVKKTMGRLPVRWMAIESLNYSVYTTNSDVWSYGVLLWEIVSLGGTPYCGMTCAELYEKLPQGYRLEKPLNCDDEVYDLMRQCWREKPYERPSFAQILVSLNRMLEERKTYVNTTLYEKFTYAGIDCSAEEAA
T4 sequence (P53350 whole entry): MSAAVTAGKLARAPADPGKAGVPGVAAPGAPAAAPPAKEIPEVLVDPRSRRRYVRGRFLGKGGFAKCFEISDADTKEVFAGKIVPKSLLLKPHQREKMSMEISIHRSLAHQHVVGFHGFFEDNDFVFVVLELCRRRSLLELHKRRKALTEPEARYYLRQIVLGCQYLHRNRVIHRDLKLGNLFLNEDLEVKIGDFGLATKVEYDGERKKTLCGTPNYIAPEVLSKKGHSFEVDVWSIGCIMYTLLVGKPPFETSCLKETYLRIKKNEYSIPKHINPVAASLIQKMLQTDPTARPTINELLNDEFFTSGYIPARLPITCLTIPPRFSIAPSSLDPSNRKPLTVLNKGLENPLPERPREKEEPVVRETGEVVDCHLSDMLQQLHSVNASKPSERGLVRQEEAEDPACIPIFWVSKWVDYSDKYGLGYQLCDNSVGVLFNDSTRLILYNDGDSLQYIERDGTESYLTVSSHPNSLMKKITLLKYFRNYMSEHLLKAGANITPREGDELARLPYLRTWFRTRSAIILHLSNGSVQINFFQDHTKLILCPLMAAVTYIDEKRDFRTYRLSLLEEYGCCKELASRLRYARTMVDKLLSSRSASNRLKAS
T2 sequence (P35968 834-1162 limits assumed): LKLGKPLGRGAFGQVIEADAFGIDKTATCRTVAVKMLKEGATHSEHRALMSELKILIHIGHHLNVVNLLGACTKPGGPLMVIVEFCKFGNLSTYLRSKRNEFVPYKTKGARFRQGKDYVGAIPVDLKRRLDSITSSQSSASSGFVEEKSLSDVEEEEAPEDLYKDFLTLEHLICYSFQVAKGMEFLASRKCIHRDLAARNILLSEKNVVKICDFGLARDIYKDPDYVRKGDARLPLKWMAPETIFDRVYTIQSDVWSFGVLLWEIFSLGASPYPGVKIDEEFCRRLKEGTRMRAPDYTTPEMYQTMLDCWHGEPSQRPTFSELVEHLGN

| SMILES | IC50 [1] [nM] | IC50 [2] [nM] | IC50 [3] [nM] | IC50 [4] [nM] |
| --- | --- | --- | --- | --- |
| O=C(NCC#Cc1cnc2nc1NCCCNS(=O)(=O)c1cccc(c1)N2)Nc1cccc(C(F)(F)F)c1 [Example 4, 1-[3-(13,13-Dioxo-13λ^6-thia-2,4,8,12,19-pentaaza-tricyclo[12.3.1.1^3,7]-nonadeca-1(18),3(19),4,6,14,16-hexaen-6-yl)-prop-2-ynyl]-3-(3-trifluoromethyl-phenyl)-urea] | ≤ 100 | ≤ 100 | > 10000 | > 10000 |
| O=C(NCC#Cc1cnc2nc1NCCCNS(=O)(=O)c1cccc(c1)N2)NCc1ccccc1 [Example 5, 1-Benzyl-3-[3-(13,13-dioxo-13λ^6-thia-2,4,8,12,19-pentaaza-tricyclo[12.3.1.1^3,7]-nonadeca-1(18),3(19),4,6,14,16-hexaen-6-yl)-prop-2-ynyl]-urea] | ≤ 100 | 100 to 1000 | > 10000 | > 10000 |
| O=C(NCCC#Cc1cnc2nc1NCCCNS(=O)(=O)c1cccc(c1)N2)Nc1ccccc1 [Example 6, 1-[4-(13,13-Dioxo-13λ^6-thia-2,4,8,12,19-pentaaza-tricyclo[12.3.1.1^3,7]-nonadeca-1(18),3(19),4,6,14,16-hexaen-6-yl)-but-3-ynyl]-3-phenyl-urea] | 100 to 1000 | ≤ 100 | 1000 to 10000 | > 10000 |
| O=S1(=O)NCCCNc2nc(ncc2C#CCNS(=O)(=O)c2cccc(Cl)c2Cl)Nc2cccc1c2 [Example 8, 2,3-Dichloro-N-[3-(13,13-dioxo-13λ^6-thia-2,4,8,12,19-pentaaza-tricyclo[12.3.1.1^3,7]-nonadeca-1(18),3(19),4,6,14,16-hexaen-6-yl)-prop-2-ynyl]-benzenesulfonamide] | 100 to 1000 | ≤ 100 | 1000 to 10000 | > 10000 |
| Cc1ccc(F)c(S(=O)(=O)NCCC#Cc2cnc3nc2NCCCNS(=O)(=O)c2cccc(c2)N3)c1 [Example 13, N-[4-(13,13-Dioxo-13λ^6-thia-2,4,8,12,19-pentaaza-tricyclo[12.3.1.1^3,7]-nonadeca-1(18),3(19),4,6,14,16-hexaen-6-yl)-but-3-ynyl]-2-fluoro-5-methyl-benzene-sulfonamide] | ≤ 100 | ≤ 100 | > 10000 | > 10000 |
